In brackets after ≈: the same amount, converted by molar mass.
How the values were obtained:
[1] = system: Aspergillus niger and A. carbonarius; details: vineyards; Tjamos et al., Journal of Phytopathology (2004); cited from earlier work
[2] = system: Chaetomium globosum CEB 1218.2 (Cg); experiment: Poison plate assay; type: cell-based; design: key: When no fungal growth was observed, the abbreviation “ng” was used; details: evaluated after one week
[3] = system: Humicola grisea MG 28 (Hg); experiment: Poison plate assay; type: cell-based; details: 168 h, evaluated after one week
[4] = system: Aspergillus niger CBS 554.65 (An); experiment: Poison plate assay; type: cell-based; details: CBS554, 168 h, evaluated after one week
Humicola grisea MG 28 = experiment: Stick test on treated Scots Pine; type: cell-based; details: 3 weeks exposure
Excerpt: (§1) [table] […] GA medium was used as a less nutrient-rich alternative to PDA, in order to prevent the test fungi from bypassing the specific mode of action of anilinopyrimidines like cyprodinil, pyrimethanil and […].

[5] = system: Chaetomium globosum ATCC 6205; experiment: Stick test on treated Scots Pine; type: cell-based; details: 3 weeks exposure
Excerpt: as §1

[6] = system: Coniophora puteana BAM 15; experiment: Stick test on treated Scots Pine; type: cell-based; details: 3 weeks exposure
Excerpt: as §1

[7] = system: Cladosporium cladosporioides IHEM 3795; experiment: Stick test on treated Scots Pine; type: cell-based; details: 3 weeks exposure
Excerpt: as §1

[8] = system: Trichoderma sp. isol. MB test; experiment: Stick test on treated Scots Pine; type: cell-based; details: 3 weeks exposure
Excerpt: as §1

[9] = system: Aspergillus niger CBS 554.65; experiment: Stick test on treated Scots Pine; type: cell-based; details: 3 weeks exposure
Excerpt: as §1

[10] = system: Coriolus versicolor CTB 863A; experiment: Stick test on treated Scots Pine; type: cell-based; details: 3 weeks exposure
Excerpt: as §1

[11] = system: Aureobasidium pullulans P 268; experiment: Stick test on treated Scots Pine; type: cell-based; details: 3 weeks exposure
Excerpt: as §1

[12] = system: Trichoderma viride CBS 189.79; experiment: Stick test on treated Scots Pine; type: cell-based; details: 3 weeks exposure
Excerpt: as §1

[13] = system: Aureobasidium pullulans P 268 (Ap1); experiment: Poison plate assay; type: cell-based; details: 168 h, evaluated after one week

| SMILES | MIC value, Cg ([2]; medium CDA) | MIC value, Cg ([2]; medium GA) | MIC value, Cg ([2]; medium GGA) | MIC ([3]; medium CDA) [µg/mL] | MIC ([3]; medium GA) [µg/mL] | MIC ([3]; medium GGA) [µg/mL] | MIC ([4]; medium CDA) [µg/mL] | MIC ([4]; medium GA) [µg/mL] | MIC ([4]; medium GGA) [µg/mL] | Threshold value, H. grisea (Humicola grisea MG 28; medium GA) | Threshold value, H. grisea (Humicola grisea MG 28; medium PDA) | Threshold value, C. globosum ([5]; medium GA) | Threshold value, C. globosum ([5]; medium PDA) | Threshold value, C. puteana ([6]; medium GA) | Threshold value, C. puteana ([6]; medium PDA) [ppm] | Threshold value, C. cladosporioides ([7]; medium GA) | Threshold value, C. cladosporioides ([7]; medium PDA) [ppm] | Threshold value, T. sp. ([8]; medium GA) [ppm] | Threshold value, T. sp. ([8]; medium PDA) [ppm] | Threshold value, A. niger ([9]; medium GA) [ppm] | other results |
| --- | --- | --- | --- | --- | --- | --- | --- | --- | --- | --- | --- | --- | --- | --- | --- | --- | --- | --- | --- | --- | --- |
| COC(=O)Nc1nc2ccccc2[nH]1 [carbendazim] | – | – | – | – | – | – | – | – | – | – | – | – | – | – | – | – | – | – | – | – | Control of Aspergillus spp. infection [1]: ineffective |
| Cc1cc(C2CC2)nc(Nc2ccccc2)n1 [cyprodinil, 4-cyclopropyl-6-methyl-N-phenyl-2-pyrimidinamine] | ng | ng | ng | 10 (≈ 44.4 µM) | 10 (≈ 44.4 µM) | 20 (≈ 88.8 µM) | < 0.6 | < 0.6 | < 0.6 | 200-400 ppm | 800-1600 ppm | 100-200 ppm | 1600-3200 ppm | 3200-6400 ppm | >6400 | 800-1600 ppm | >6400 | >6400 | >6400 | >6400 | Threshold value, A. niger ([9]; medium PDA): >6400 ppm; Threshold value, C. versicolor ([10]; medium GA): >6400 ppm; Threshold value, C. versicolor ([10]; medium PDA): >6400 ppm; Threshold value, A. pullulans ([11]; medium GA): 3200-6400 ppm; Threshold value, A. pullulans ([11]; medium PDA): >6400 ppm; Threshold value, T. viride ([12]; medium GA): >6400 ppm; Threshold value, T. viride ([12]; medium PDA): >6400 ppm; MIC ([13]; medium CDA): 5 µg/mL (≈ 22.2 µM); MIC ([13]; medium GA): 10 µg/mL (≈ 44.4 µM); MIC ([13]; medium GGA): 5 µg/mL (≈ 22.2 µM) |
| CC#Cc1cc(C)nc(Nc2ccccc2)n1 [mepanipyrim, 4-methyl-6-(prop-1-ynyl)-N-phenyl-2-pyrimidinamine] | ng | ng | ng | 10 (≈ 44.8 µM) | 20 (≈ 89.6 µM) | 20 (≈ 89.6 µM) | < 0.6 | < 0.6 | < 0.6 | 200-400 ppm | >6400 ppm | 200-400 ppm | >6400 ppm | >6400 ppm | >6400 | >6400 ppm | >6400 | >6400 | >6400 | >6400 | Threshold value, A. niger ([9]; medium PDA): 1600-3200 ppm; Threshold value, C. versicolor ([10]; medium GA): >6400 ppm; Threshold value, C. versicolor ([10]; medium PDA): >6400 ppm; Threshold value, A. pullulans ([11]; medium GA): >6400 ppm; Threshold value, A. pullulans ([11]; medium PDA): >6400 ppm; Threshold value, T. viride ([12]; medium GA): >6400 ppm; Threshold value, T. viride ([12]; medium PDA): >6400 ppm; MIC ([13]; medium CDA): 10 µg/mL (≈ 44.8 µM); MIC ([13]; medium GA): 20 µg/mL (≈ 89.6 µM); MIC ([13]; medium GGA): 20 µg/mL (≈ 89.6 µM) |
| Cc1cc(C)nc(Nc2ccccc2)n1 [pyrimethanil, 4,6-dimethyl-N-phenyl-2-pyrimidinamine] | ng | ng | ng | > 20 | > 20 | > 20 | < 0.6 | < 0.6 | 20 (≈ 100 µM) | 800-1600 ppm | 1600-3200 ppm | 800-1600 ppm | >6400 ppm | >6400 ppm | >6400 | 1600-3200 ppm | >6400 | >6400 | >6400 | >6400 | Threshold value, A. niger ([9]; medium PDA): >6400 ppm; Threshold value, C. versicolor ([10]; medium GA): >6400 ppm; Threshold value, C. versicolor ([10]; medium PDA): >6400 ppm; Threshold value, A. pullulans ([11]; medium GA): 1600-3200 ppm; Threshold value, A. pullulans ([11]; medium PDA): >6400 ppm; Threshold value, T. viride ([12]; medium GA): >6400 ppm; Threshold value, T. viride ([12]; medium PDA): >6400 ppm; MIC ([13]; medium CDA): 20 µg/mL (≈ 100 µM); MIC ([13]; medium GA): 20 µg/mL (≈ 100 µM); MIC ([13]; medium GGA): 20 µg/mL (≈ 100 µM) |

Reference: US20090069356A1, “USE OF ANILINOPYRIMIDINES IN WOOD PROTECTION” (priority 2004, published 2009)
